In publication PMC12669278, “VDAC1-interacting proteins: binding site mapping and their derived peptides induce apoptosis and multifaceted cellular effects” (Apoptosis, 2025):

Target: purified VDAC1 (Homo sapiens, UniProt P21796)
Assay: Glass-bound peptide array probed with purified VDAC1 and anti-VDAC1 antibodies
Assay type: binding
Parameters: key: +: low; ++: medium; +++: high
Settings: glass-bound peptide array incubated 4 h with purified VDAC1 (64 nM), chemiluminescence; for Spot intensity, detected using anti-N-terminus VDAC1: antibody against VDAC1 N-terminus; for Spot intensity, detected using anti-VDAC1 internal sequence: antibody against VDAC1 amino acids 150-250
Description: A customized peptide array was produced by INTAVIS Peptide Services (GmbH & Co. KG, Tübingen, Germany). It comprised 768 peptide sequences derived from 19 VDAC1-interacting proteins that were arrayed on a glass slide. Each peptide was composed of 25 amino acids with an overlap of 15 amino acids with the peptides before and following it.
The interaction of purified VDAC1 with glass-bound peptide arrays was assessed by washing the slide three times, 10 min each, with TBST (150 mM NaCl, 50 mM Tris/HCl, pH 7.4, 0.1% Tween-20), followed by overnight incubation with blocking buffer (TBS, pH 7.8, containing low-fat dry milk, 2.5%, w/v) at 4 °C. Then slides were incubated with purified VDAC1 in protein-interacting buffer (20 mM HEPES, 100 mM KCl, pH,7.4, PBS) for 4 h at room temperature (RT). After washing, with TBST, slides were incubated overnight at 4 °C with anti-VDAC1 antibody against a sequence of 150–250 amino acids or against the VDAC1-N-terminus. Slides were then washed with TBST, followed by the appropriate secondary anti-HRP conjugated antibody for 2 h at RT. They were washed again with TBST and developed using enhanced chemiluminescence EZ-ECL (Biological Industries), according to the manufacturer’s instructions. The signal was captured in the dark using FUSION-FX (Vilber Lourmat) software.

Sequence of purified VDAC1 (P21796 whole entry, species assumed): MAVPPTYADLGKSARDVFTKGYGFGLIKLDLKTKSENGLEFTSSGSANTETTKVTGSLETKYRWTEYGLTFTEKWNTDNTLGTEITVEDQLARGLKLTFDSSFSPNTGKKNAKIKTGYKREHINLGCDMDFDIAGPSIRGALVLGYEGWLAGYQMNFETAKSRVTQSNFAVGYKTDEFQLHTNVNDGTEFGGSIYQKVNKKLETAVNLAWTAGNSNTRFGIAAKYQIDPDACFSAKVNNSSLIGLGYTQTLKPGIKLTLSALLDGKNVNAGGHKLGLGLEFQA

| Sequence | Spot intensity, detected using anti-N-terminus VDAC1 | Spot intensity, detected using anti-VDAC1 internal sequence |
| --- | --- | --- |
| FPTQALNFAFKDKYKQIFLGGVDKH [1F21, array peptide from ANT3] | +++ | – |
| SVKRVTQDPKLQMGKKLPLHLTLPQ [1N4, array peptide from CD4] | ++ | – |
| SILEIQKGVFEVKSTNGDTFLGGED [2N23, array peptide from HSP-70] | +++ | +++ |
| KFHGTVKAENGKLVINGNPITIFQE [2B20, array peptide from GAPDH1] | – | +++ |
| MEVIRQVKGDLAFLNFQNNLQQTPL [2F6] | + | – |
| FTEDELPYDDCVFGGQRLTL [2G5] | + | – |
| KDFLAGGIAAAISKTAVAPIERVKL [1F13, array peptide from ANT3] | ++ | – |
| KGLPRPKSAGTATQMRQSSSWTRVF [1A15, array peptide from BAD] | ++ | – |
| FRGLGDCLVKITKSDGIRGLYQGFS [1G5, array peptide from ANT3] | +++ | – |
| EVAASAILTAQLDEELGGTPVQSRV [2I10, array peptide from gelsolin isoform b] | – | + |
| YKGGTSREGGQTAPASTRLFQVRAN [2I15, array peptide from gelsolin isoform b] | + | – |
| RYGRELRRMSDEFVDSFKKGLPRPK [1A13, array peptide from BAD] | + | – |
| LDIERPTYTNLNRLISQIVSSITAS [2A12, array peptide from tubulin alpha 1b] | – | ++ |
| KTGPNLHGLFGRKTGQAPGYSYTAA [1D9, array peptide from cytochrome c] | + | – |
| IMKTGALLLQGFIQDRAGRMGGEAP [1A22, array peptide from BAX] | +++ | – |
| TPPPAEEEEDELYRQSLEIISRYLR [2D22, array peptide from Mcl-1] | ++ | – |
| VSSITASLRFDGALNVDLTEFQTNL [2A14, array peptide from tubulin alpha 1b] | + | +++ |
| EQGVLSFWRGNLANVIRYFPTQALN [1F19, array peptide from ANT3] | +++ | + |
| AVIGGSAGASPPSTLTPDSRRVARP [2D10, array peptide from Mcl-1] | + | – |
| IFVGIKKKEERADLIAYLKKATNE [1D15, array peptide from cytochrome c] | ++ | + |
| KLQMGKKLPLHLTLPQALPQYAGSG [1N5, array peptide from CD4] | ++ | – |
| EDFSETLTRAKFEELNMDLFRSTMK [2L5, array peptide from BiP1] | + | – |

| Sequence | Spot intensity, detected using anti-N-terminus VDAC1 | Spot intensity, detected using anti-VDAC1 internal sequence |
| --- | --- | --- |
| AGATSSLTPSRGPVSPSVSFQPLAR [1K9, array peptide from MAVS] | +++ | – |
| QVSVLPEGGETPLFKQFFKNWRDPD [2H20, array peptide from gelsolin isoform b] | ++ | – |
| PLAESITDVLVRTKRDWLVKQRGWD [2E12, array peptide from Mcl-1] | ++ | – |
| FDGALNVDLTEFQTNLVPYPRIHFP [2A15, array peptide from tubulin alpha 1b] | – | ++ |
| GKEPAHLMSLFGGKPMIIYKGGTSR [2I13, array peptide from gelsolin isoform b] | + | – |
| TKVPELIRTIMGWTLDFLRERLLGW [1B10, array peptide from BAX] | +++ | – |
| SPFRGRSRSAPPNLWAAQRYGRELR [1A11, array peptide from BAD] | + | – |
| SPPSTLTPDSRRVARPPPIGAEVPD [2D11, array peptide from Mcl-1] | + | – |
| GGVFTKLINRNTTIPTKKSQVFSTA [2O21, array peptide from HSP-70] | + | – |
| DDEGMGEEPSPFRGRSRSAPPNLWA [1A10, array peptide from BAD] | ++ | – |
| IMGWTLDFLRERLLGWIQDQGGWGL [1B11, array peptide from BAX] | +++ | – |
| QGCLASVGVLTQSCTTPHLHSILKA [2F13] | ++ | – |
| GTATQMRQSSSWTRVFQSWWDRNLG [1A16, array peptide from BAD] | ++ | – |
| TGSGFTSLLMERLSVDYGKKSKLEF [2A4, array peptide from tubulin alpha 1b] | + | + |
| YQVSPLAARLLYPYLAWLAFTTTLN [1H11, array peptide from TSPO] | – | + |
| PYQLTWGRPSTRIQQQLGQLTLENL [2F24] | +++ | – |
| NGKLVINGNPITIFQERDPSKIKWG [2B21, array peptide from GAPDH1] | + | – |
| KVQRAVCMLSNTTAIAEAWARLDHK [2B5, array peptide from tubulin alpha 1b] | + | – |
| VGKVIPELNGKLTGMAFRVPTANVS [2C14, array peptide from GAPDH1] | +++ | – |
| ISAMVLTKMKETAEAYLGKKVTHAV [2K10, array peptide from BiP1] | ++ | – |
| ITATQKTVDGPSGKLWRDGRGALQN [2C10, array peptide from GAPDH1] | + | – |
| RGPTAARHQDSWNGLSHEAFRLVSR [2M21, array peptide from HSP-70] | + | – |

| Sequence | Spot intensity, detected using anti-N-terminus VDAC1 | Spot intensity, detected using anti-VDAC1 internal sequence |
| --- | --- | --- |
| GGGPTSSEQIMKTGALLLQGFIQDR [1A21, array peptide from BAX] | + | – |
| TDVLLLDVTPLSLGIETLGGVFTKL [2O19, array peptide from HSP-70] | ++ | + |
| LLGTFDLTGIPPAPRGVPQIEVTFE [2L23, array peptide from BiP1] | +++ | + |
| SSWTRVFQSWWDRNLGRGSSAPSQ [1A17, array peptide from BAD] | + | – |
| ELEEIVQPIISKLYGSAGPPPTGEE [2M15, array peptide from BiP1] | ++ | +++ |
| MGKVKVGVNGFGRIGRLVTRAAFNS [2B14, array peptide from GAPDH1] | +++ | – |
| RVVALFYFASKLVLKALCTKVPELI [1B8, array peptide from BAX] | ++ | – |
| AVDTDSPREVFFRVAADMFSDGNFN [1B5, array peptide from BAX] | +++ | – |
| SNTTAIAEAWARLDHKFDLMYAKRA [2B6, array peptide from tubulin alpha 1b] | ++ | – |
| ASIHGYLGIVELLVSLGADVNAQEP [2F17] | ++ | + |
| LVFHSFGGGTGSGFTSLLMERLSVD [2A3, array peptide from tubulin alpha 1b] | +++ | + |
| QLTLENLQMLPESEDEESYDTESEF [2G2] | – | ++ |
| IEIESFYEGEDFSETLTRAKFEELN [2L4, array peptide from BiP1] | + | ++ |
| HVAENPSIQLLEGNPGPPADPDGGP [1L14, array peptide from MAVS] | – | +++ |
| TEDELPYDDCVFGGQRLTL [2G6] | + | – |
| YKSEGTFGIHVAENPSIQLLEGNPG [1L13, array peptide from MAVS] | – | ++ |
| MVVEHPEFLKAGKEPGLQIWRVEKF [2G8, array peptide from gelsolin isoform b] | +++ | – |
| MTEQAISFAKDFLAGGIAAAISKTA [1F12, array peptide from ANT3] | + | – |
| GNLANVIRYFPTQALNFAFKDKYKQ [1F20, array peptide from ANT3] | +++ | + |
| IEDFKAKKKELEEIVQPIISKLYGS [2M14, array peptide from BiP1] | ++ | ++ |
| KCELSSSVQTDINLPYLTMDSSGPK [2O6, array peptide from HSP-70] | + | – |
